Measurements published in patent US12221449B2, “Pyrrolopyrimidine derivative and use thereof” (WUHAN HUMANWELL INNOVATIVE DRUG RESEARCH AND DEVELOPMENT …, priority 2019, dated 2025).
≈ marks a conversion by molar mass, not a printed value. Where two headings read alike, the source gives them in different places.

How the values were obtained:
[1] = Pharmacokinetic test in rats; assay type: in vivo, male SD rats; settings: for AUC(0-t) / clearance / half-life / Vd / Cmax / Tmax: male, SD, rat, plasma; for Vd: read-out: Vz
Procedure: (§1) For the in vivo pharmacokinetic test of rats, 6 male SD rats were used, 180-240 g, fasted overnight. […] The blood samples were centrifuged at 8,000 rpm at 4° C. for 6 min, and plasma was collected and stored at −20° C. The plasma at each time point was taken and added with an acetonitrile solution containing internal standard in 3-5 times the amount, vortexed and mixed for 1 min, and centrifuged at 13,000 rpm at 4° C. for 10 min. The supernatant was collected, added and mixed with water in 3 times the amount. An appropriate amount of the mixture was taken for LC-MS/MS analysis. The main pharmacokinetic parameters were analyzed using WinNonlin 7.0 software with non-compartmental model.

[2] = target: ATX enzyme activity in human plasma (Homo sapiens (Human), UniProt Q13822); experiment: Inhibition test of ATX enzyme activity in human plasma (LPA18:2 formation); assay type: biochemical; settings: 37° C., 3 h
Procedure: Whole blood was collected from healthy volunteers and anticoagulated with heparin. The blood collection tubes were centrifuged at 3,000 rpm for 10 min, and the plasma was taken and stored at −80° C. for use.
The compound was serially diluted with DMSO according to the conventional concentration requirements, and then 3 μL of the diluted compound was added to a 96-well plate, and 147 μL of PBS was added to each well containing 3 μL of the compound. After mixing homogenously, 50 μL of the mixture was removed and added to a new 96-well plate. The human plasma was taken out from the −80° C. refrigerator and thawed through rapid shaking in a 37° C. water bath. 50 μL of the human plasma was taken and added to the 96-well plate containing 50 μL of the diluted compound (the final system was 1% DMSO). The group without the compound was set as the positive control group. The 96-well plate was shaken and mixed uniformly, and incubated at 37° C. for 3 h. A blank group was also provided, and the plasma of the blank group was stored at −80° C. The blank group is provided to determine the baseline concentration of endogenous LPA.
After the incubation was finished, the blank group was thawed on ice and transferred to an incubation plate. Excess acetonitrile containing the internal standard LPA17:0 was added to the incubation plate to precipitate the plasma protein. After vortex centrifugation, the supernatant was taken and diluted, and a peak area of LPA18:2 and a peak area of internal standard LPA17:0 were detected using LC-MSMS mass spectrometry.
According to the inhibition rates of different concentrations of the compound, the IC50 value of the compound, which is related to inhibition of ATX enzyme activity in human plasma, was calculated.

[3] = target: hERG channels (CHO cell line stably expressing hERG) (Homo sapiens (Human), UniProt Q12809); experiment: Inhibitory effect on hERG by full-automatic electrophysiological patch clamp QPatch; assay type: cell-based; settings: for IC50: CHO hERG cells, QPatch; for hERG IC50/ATX IC50: ratio of hERG IC50 (μM) to ATX IC50 (nM)
hERG channels (CHO cell line stably expressing hERG), sequence (Q12809 whole entry): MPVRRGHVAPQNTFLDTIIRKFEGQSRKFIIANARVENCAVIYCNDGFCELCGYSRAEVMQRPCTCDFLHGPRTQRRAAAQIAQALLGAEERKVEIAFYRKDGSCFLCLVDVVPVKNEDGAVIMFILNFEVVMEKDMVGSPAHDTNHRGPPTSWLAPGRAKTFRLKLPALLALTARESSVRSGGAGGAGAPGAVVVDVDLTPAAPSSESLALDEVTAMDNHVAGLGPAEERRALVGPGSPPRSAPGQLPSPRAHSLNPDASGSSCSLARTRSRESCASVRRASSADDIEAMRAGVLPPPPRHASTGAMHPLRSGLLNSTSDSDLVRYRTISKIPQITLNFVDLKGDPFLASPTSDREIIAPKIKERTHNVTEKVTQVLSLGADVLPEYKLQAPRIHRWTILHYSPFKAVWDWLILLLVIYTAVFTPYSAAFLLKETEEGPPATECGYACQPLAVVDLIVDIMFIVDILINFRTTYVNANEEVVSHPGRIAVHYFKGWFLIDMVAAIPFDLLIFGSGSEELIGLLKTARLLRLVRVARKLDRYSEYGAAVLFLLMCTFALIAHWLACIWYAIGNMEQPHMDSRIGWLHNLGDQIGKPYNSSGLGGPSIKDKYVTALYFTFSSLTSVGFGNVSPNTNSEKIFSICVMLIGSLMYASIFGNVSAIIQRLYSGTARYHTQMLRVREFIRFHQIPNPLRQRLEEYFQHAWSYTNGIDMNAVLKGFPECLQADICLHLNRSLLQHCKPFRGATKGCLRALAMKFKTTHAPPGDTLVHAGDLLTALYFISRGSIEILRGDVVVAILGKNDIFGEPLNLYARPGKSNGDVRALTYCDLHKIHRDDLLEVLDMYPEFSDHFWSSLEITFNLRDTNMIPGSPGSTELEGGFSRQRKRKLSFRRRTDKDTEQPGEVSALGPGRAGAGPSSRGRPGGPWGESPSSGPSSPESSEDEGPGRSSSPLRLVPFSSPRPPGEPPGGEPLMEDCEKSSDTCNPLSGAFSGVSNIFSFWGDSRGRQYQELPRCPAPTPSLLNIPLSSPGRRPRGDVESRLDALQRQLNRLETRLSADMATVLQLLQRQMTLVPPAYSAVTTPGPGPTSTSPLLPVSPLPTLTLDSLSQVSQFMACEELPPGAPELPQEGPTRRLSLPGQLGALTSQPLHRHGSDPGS
Procedure: Full-automatic electrophysiological patch clamp QPatch was used to detect the inhibitory effect of compounds on hERG. Cells used in this test were CHO cell line transfected with cDNA of hERG and stably expressing hERG channels (provided by Sophion Bioscience, Denmark), and the cell passage number was P24. The cells were cultured in a medium containing the following components (all purchased from Invitrogen): Ham's F12 medium, inactivated fetal bovine serum (10% (v/v)), hygromycin B (100 μg/ml), and Geneticin (100 μg/ml). CHO hERG cells were grown in a petri dish containing the above-mentioned medium and cultured in an incubator at 37° C. and containing 5% Co2.
The compound to be tested was prepared as a 10 mM stock solution in DMSO solvent, the compound was diluted to 3 mM, 1 mM, 0.3 mM, and 0.1 mM with DMSO, and then the compound was diluted to 30 μM, 10 μM, 3 μM, 1 μM, 0.3 μM and 0.1 μM with the extracellular fluid, so that except that the final concentration of DMSO in the 30 μM compound was 0.3%, the final concentration of DMSO in compound solutions of all other concentrations was 0.1%.
The CHO hERG cells, after being digested and resuspended, were added to the fully automated QPatch system (Sophion, Denmark), and subjected to a test according to the following preset procedure.
After reaching the ruptured whole cell configuration state in the initial stage, the whole cell current was recorded at room temperature (about 25° C.), and the cells were recorded for at least 120 seconds in order to achieve stability. The stable cells were selected for the test. During the whole test, the cell patch clamp was at a voltage of −80 mV, the cell patch clamp voltage was depolarized to +20 mV to activate the hERG potassium channels, and after 2.5 seconds, the cell patch clamp voltage was at −50 mV to eliminate inactivation and generate outward tail current. The peak tail current was used as the value of the hERG current. The voltage mode described above was applied to the cells for electrophysiological tests every 15 seconds. An intracellular liquid containing 0.1% dimethyl sulfoxide (solvent) was added to the cells to establish a baseline, and then the current was allowed to stabilize for 3 min. After the compound solution was added, the cells were kept in the test environment until the effect of the compound reached a steady state or until reaching 4 min. In the test experiments with different concentration gradients of the compound, the compound was added to the clamped cells from low to high concentration. After the compound test was finished, the cells were washed with the extracellular fluid until the current returned to a stable state.
The test data were analyzed by Qpatch analysis software provided by Sophion, Excel, and Graphpad Prism.

[4] = system: idiopathic pulmonary fibrosis model (IPF model) induced by bleomycin; experiment: IPF model induced by bleomycin in rats; assay type: in vivo, male BN rats; settings: 30 mg/kg orally twice a day; for weight reduction of the animals: 21 days, compared with control compound group, FIG. 1
Procedure: Using male BN rats, 180-240 g, idiopathic pulmonary fibrosis model (IPF model) was induced with a dose of 5 U/kg bleomycin. […] On the second day after the model was established, the animals were orally administered by gavage twice a day, where the administration group was administered with a dose of 30 mg/kg each time, and the solvent control group was administered with a blank solvent, and the administration continued for 21 days. During the administration, the body weight was weighed every three days. On day 21 of administration, alveolar lavage was conducted 2 h after the first administration, the inflammatory cells in the lavage fluid were counted, and the associated biomarkers in the supernatant of the lavage fluid were detected. After lavage, the left lungs of the rats were fixed, and stained with Masson's trichrome staining to score the fibrosis pathology. The remaining lung lobes were cryopreserved. The supernatant of the alveolar lavage fluid and the freshly frozen lung tissue of the three compound groups were taken and detected for a content of TGF-β1 protein and an amount of total protein by using ELISA, and the amount of TGF-β1 per milligram of total protein was calculated.

[5] = Human liver microsome stability test; assay type: in vitro ADME; settings: human liver microsomes; for Remaining percentage (%) of compound after incubation for 30 min: 37° C., NADPH; for half-life at 1 µM: human
Procedure: The human liver microsome stability test was performed by incubating the compound and human liver microsomes in vitro. First, the test compound is prepared as a 10 mM stock solution in DMSO solvent, and then the compound was diluted to 0.5 mM with acetonitrile. Human liver microsomes (Corning) were diluted with PBS and prepared as a microsome/buffer solution, which was used to dilute 0.5 mM of the compound into a working solution. […] A deep-well multiwell plate was taken, 30 μL of the working solution and 15 μL of pre-warmed NADPH solution (6 mM) were sequentially added to each well to initiate a reaction, and the reaction was incubated at 37° C. […] After centrifugation, the supernatant was collected, and added with purified water in a ratio of 1:1 to perform LC-MS/MS detection. […] T1/2 was calculated by using Excel.

[6] = Thermodynamic solubility test; assay type: physicochemical; settings: for solubility: thermodynamic from solid
Procedure: The compound was accurately weighed, and the prepared phosphate buffer (pH 7.4), FeSSIF solution (pH 5.8) and FaSSGF solution (pH 1.6) were added to prepare a solution with a concentration of 4 mg/mL, which was shaken at 1,000 rpm for 1 hour, and then incubated overnight at room temperature. After the incubation, the solution was centrifuged at 12,000 rpm for 10 min to remove undissolved particles, and the supernatant was transferred to a new centrifuge tube. The supernatant was diluted appropriately, then added with an acetonitrile solution containing the internal standard, and quantified using a standard curve prepared with the same matrix.

[7] = cited from earlier work; for probability of discontinuation due to serious adverse events: patients taking the drug, Maher et al. 2019
Autotaxin (ATX) enzyme = Autotaxin (ATX) enzyme (Homo sapiens (Human), UniProt Q13822); experiment: Autotaxin (ATX) enzyme activity inhibition assay (Cayman Autotaxin Inhibitor Screening Assay Kit); assay type: biochemical; settings: OD405, 37° C., 30 min; read-out: IC50, inhibitory activity on ATX activity
Procedure: Subsequently, the 8 concentrations were diluted with Autotaxin Assay buffer (1×) provided in the kit into 19× compound working solutions (DMSO content was 1.9%). The Autotaxin Assay Reagent (10×) was taken out and diluted by 10 times with Autotaxin Assay Buffer (1×). The Autotaxin Substrate was taken out, dissolved by adding 1.2 mL of Autotaxin Assay Buffer (1×), mixed evenly and stood at room temperature.

[8] = Pharmacokinetic test in mice; assay type: in vivo, male ICR mice
Procedure: as §1
For the in vivo pharmacokinetic test of mice, 18 male ICR mice were used, 20-25 g, fasted overnight. Among them, 9 mice were orally administered by gavage (10 mg/kg), bloods of 3 mice were collected at each blood collection time point, and the bloods of the 9 mice were alternately collected. The other 9 mice were intravenously administered with the compound (1 mg/kg), bloods of 3 mice were collected at each blood collection time point, and the bloods of the 9 mice were alternately collected. The rest operations were the same as that of pharmacokinetic test in rats.

[9] = day 21, compared with solvent control group, FIG. 2
[10] = FaSSGF solution, fassgf or other biorelevant, FaSSGF, pH 1.6, thermodynamic, read-out: Dissolubility FaSSGF (pH 1.6)
[11] = FeSSIF solution, FeSSIF, pH 5.8, thermodynamic, read-out: Dissolubility FeSSIF (pH 5.8)
[12] = phosphate buffered saline, aqueous buffer, PBS, pH 7.4, thermodynamic, read-out: Dissolubility PBS (pH 7.4)
[13] = male, ICR, mouse, plasma, intravenous administration 1 mg/kg
[14] = male, ICR, mouse, plasma, oral administration by gavage 10 mg/kg
[15] = intravenous administration 1 mg/kg
[16] = oral administration by gavage 10 mg/kg

## C[C@H](Cc1cnn[nH]1)OCC(=O)N1Cc2cnc(NC3Cc4ccccc4C3)nc2C1 [Compound I-2R, (R)-2-((1-(1H-1,2,3-triazol-5-yl)propan-2-yl)oxy)-1-(2-((2,3-dihydro-1H-inden-2-yl)amino)-5,7-dihydro-6H-pyrrolo[3,4-d]pyrimidin-6-yl)ethan-1-one]
[1]; fraction of control compound's CL
  clearance rate (CL) relative to that of the control compound: about ¼
[1]; oral
  oral AUC0-t relative to that of the control compound: 4.2 times
  oral Cmax relative to that of the control compound: 6.1 times
[2]
  IC50: 4.73 nM
[3]
  IC50: 9480 nM
  hERG IC50/ATX IC50: 9.48/1.59 = 6.0
[4]
  weight reduction of the animals: significantly less than that of the control compound group
[4]; [9]
  content of TGF-β1 in the freshly frozen lung tissue: significantly lower than those of the solvent control group
  content of TGF-β1 in the supernatant of the alveolar lavage fluid: significantly lower than those of the solvent control group
[5]
  Remaining percentage (%) of compound after incubation for 30 min: 63.7%
  half-life at 1 µM: 53.6 min
[6]; [10]
  solubility: 1040 µg/mL (≈ 2470 µM)
[6]; [11]
  solubility: 260 µg/mL (≈ 620 µM)
[6]; [12]
  solubility: 107 µg/mL (≈ 255 µM)

## Cc1ccc(=O)n(-c2ccccc2)c1 [Pirfenidone]
[7]
  probability of discontinuation due to serious adverse events: 20.9%

## COC(=O)c1ccc2c(c1)NC(=O)/C2=C(\Nc1ccc(N(C)C(=O)CN2CCN(C)CC2)cc1)c1ccccc1 [Nintedanib]
[7]
  probability of discontinuation due to serious adverse events: 26.3%
[7]; patients
  incidence of gastrointestinal reactions: ≤ 50%

## C[C@@H](OCCc1c[nH]nn1)C(=O)N1Cc2cnc(NC3Cc4ccccc4C3)nc2C1 [Compound I-1R, (R)-2-(2-(1H-1,2,3-triazol-4-yl)ethoxy)-1-(2-((2,3-dihydro-1H-inden-2-yl)amino)-5,7-dihydro-6H-pyrrolo[3,4-d]pyrimidin-6-yl)propan-1-one]
Autotaxin (ATX) enzyme
  IC50: 2.67 nM
[8]; [13]
  AUC(0-t): 495 ng·h/mL
  clearance: 34.8 mL/min/kg
  half-life: 22.2 min
[8]; male, ICR, mouse, plasma, intravenous administration 1 mg/kg, read-out: Vz
  Vd: 1.05 L/kg
[8]; [14]
  AUC(0-t): 6120 ng·h/mL
  Cmax: 6940 ng/mL
  Tmax: 25.2 min
  half-life: 40.2 min
[1]; [15]
  AUC(0-t): 828 ng·h/mL
  clearance: 21.3 mL/min/kg
  half-life: 25.8 min
  Vd: 0.76 L/kg
[1]; [16]
  AUC(0-t): 6330 ng·h/mL
  Cmax: 3390 ng/mL
  Tmax: 30 min
  half-life: 151 min
[2]
  IC50: 12 nM
[3]
  IC50: 22000 nM
  hERG IC50/ATX IC50: 22.0/2.67 = 8.24
[5]
  Remaining percentage (%) of compound after incubation for 30 min: 86.0%
  half-life at 1 µM: 123 min
[6]; [10]
  solubility: 88.5 µg/mL (≈ 211 µM)
[6]; [11]
  solubility: 20.4 µg/mL (≈ 48.6 µM)
[6]; [12]
  solubility: 20.4 µg/mL (≈ 48.6 µM)

## CC(OCCc1c[nH]nn1)C(=O)N1Cc2cnc(NC3Cc4ccccc4C3)nc2C1 (racemic) [Compound I-1, 2-(2-(1H-1,2,3-triazol-4-yl)ethoxy)-1-(2-((2,3-dihydro-1H-inden-2-yl)amino)-5,7-dihydro-6H-pyrrolo[3,4-d]pyrimidin-6-yl)propan-1-one]
Autotaxin (ATX) enzyme
  IC50: 4.24 nM
[3]
  IC50: 22300 nM
  hERG IC50/ATX IC50: 22.3/4.24 = 5.26
[5]
  Remaining percentage (%) of compound after incubation for 30 min: 87.4%

## C[C@@H](Cc1cnn[nH]1)OCC(=O)N1Cc2cnc(NC3Cc4ccccc4C3)nc2C1 [Compound I-2S, (S)-2-((1-(1H-1,2,3-triazol-5-yl)propan-2-yl)oxy)-1-(2-((2,3-dihydro-1H-inden-2-yl)amino)-5,7-dihydro-6H-pyrrolo[3,4-d]pyrimidin-6-yl)ethan-1-one]
Autotaxin (ATX) enzyme
  IC50: 1.4 nM
[1]; [15]
  AUC(0-t): 661 ng·h/mL
  clearance: 25.2 mL/min/kg
  half-life: 20.4 min
  Vd: 0.74 L/kg
[1]; [16]
  AUC(0-t): 3690 ng·h/mL
  Cmax: 2420 ng/mL
  Tmax: 25.2 min
  half-life: 115 min
[2]
  IC50: 2.1 nM
[3]
  IC50: 8780 nM
  hERG IC50/ATX IC50: 8.87/1.40 = 6.3
[4]
  weight reduction of the animals: significantly less than that of the control compound group
[5]
  Remaining percentage (%) of compound after incubation for 30 min: 42.9%
  half-life at 1 µM: 26.6 min
[6]; [10]
  solubility: 1240 µg/mL (≈ 2960 µM)
[6]; [12]
  solubility: 73.6 µg/mL (≈ 175 µM)

## C[C@H](OCCc1c[nH]nn1)C(=O)N1Cc2cnc(NC3Cc4ccccc4C3)nc2C1 [Compound I-1S, (S)-2-(2-(1H-1,2,3-triazol-4-yl)ethoxy)-1-(2-((2,3-dihydro-1H-inden-2-yl)amino)-5,7-dihydro-6H-pyrrolo[3,4-d]pyrimidin-6-yl)propan-1-one]
Autotaxin (ATX) enzyme
  IC50: 28.6 nM

## O=C(COCCc1cnn[nH]1)N1Cc2cnc(NC3Cc4ccccc4C3)nc2C1 [Control compound, reference compound]
[8]; [15]
  T1/2: 20.4 min
[8]; [16]
  T1/2: 49.8 min
[1]; [15]
  T1/2: 27 min
[1]; [16]
  T1/2: 78.6 min
[5]
  T1/2: 24.1 min
  Remaining percentage (%) of compound after incubation for 30 min: 41.2%
[6]; FaSSGF, pH 1.6, thermodynamic
  Dissolubility FaSSGF (pH 1.6): 66.5 μg/mL
[6]; FeSSIF, pH 5.8, thermodynamic
  Dissolubility FeSSIF (pH 5.8): 18.3 μg/mL
[6]; PBS, pH 7.4, thermodynamic
  Dissolubility PBS (pH 7.4): 6.3 μg/mL
[6]; simulated gastric juice, simulated intestinal juice, neutral conditions
  thermodynamic solubility (in words): relatively poor

## CC(Cc1cnn[nH]1)OCC(=O)N1Cc2cnc(NC3Cc4ccccc4C3)nc2C1 (racemic) [Compound I-2, 2-((1-(1H-1,2,3-triazol-5-yl)propan-2-yl)oxy)-1-(2-((2,3-dihydro-1H-inden-2-yl)amino)-5,7-dihydro-6H-pyrrolo[3,4-d]pyrimidin-6-yl)ethan-1-one]
Autotaxin (ATX) enzyme
  IC50: 1.35 nM
